# Reference: patent US6455541B1, “Suppression, by 5-lipoxygenase inhibitors, of bone resorption” (Board of Regents, The University of Texas System, priority 1994, dated 2002)
# Several values for one entry are separate records, joined by “and”; a condition that tells them apart may be missing. Equal entries are not always repeated. Entries after “also recorded” stand apart in the source; their conditions may differ. Where two headings read alike, the source gives them in different places.
# Columns and labels:
# [1] = test system: neonatal mouse calvariae; assay: Neonatal mouse (murine) calvarial assay, 45Ca release; format: cell-based
# Procedure: The assay was performed as described by Gowen et al. (1983). Timed pregnant mice were injected with ^45Ca 2 days before parturition. Half-calvaria were removed from the 1-2-day-old pups and preincubated for 24 h in BGJb medium at 37° C. in a humidified atmosphere of 5% CO2 before transfer to fresh media with or without test substances for 48 h. The bones were incubated for a further 72 h and media and bones collected. Bone-resorbing activity was expressed as the percentage of the total ^45Ca released into the medium.
# [2] = test system: C433 cells; assay: Radioimmunoassay of 5-HETE in C433-conditioned media; format: cell-based, human; conditions: +1,25-(OH)2 vitamin D3 10^−8 M, duplicate
# Procedure: The radioimmunoassays for 5-HETE were purchased from Advanced Magnetics, Inc. (Cambridge, Mass.).
# (§1) C433 cells were grown in 10% fetal bovine serum (Whittaker, Walkersville, Md.) 50% RPMI, 50% McCoys (Flow, McLean, Va.) until a density of 10^4 cells/ml was obtained, at which time the cells were harvested, washed, […] This conditioned medium was applied to a prewetted C18 Sep-Pak (Millipore, Waters, Milford, Mass.), and bound material was extracted using ethyl acetate. This material was dried under nitrogen and resuspended in water, it acetic acid and analyzed by high pressure measure liquid chromatography (HPLC) (Waters, Milford, Mass.) applied to a C8 semipreparative 25 cm×10 mm reverse phase column (Keystone Scientific, Inc., Bellefonte, Pa.) at 2 ml/min. The gradient was 0-100% methanol, 1% acetic acid over 60 min with 6-ml fractions collected. The fractions were dried under nitrogen, and those fractions to be assayed for osteoclast stimulating activity were stabilized with 20 μl of 10% bovine serum albumin. Fractions to be used for gas chromatography-mass spectrometric analysis were prepared for derivatization.
# To confirm that C433-conditioned medium contained these 5-LO metabolites and that production was hormonally regulated, radioimmunoassays were performed for 5-HETE using commercially available kits. […]
# [3] = test system: isolated rat osteoclasts; assay: Disaggregated rat osteoclast pit formation assay on sperm whale dentine; format: cell-based
# Procedure: (§2) Quantitation of the effects of isolated osteoclasts on calcified matrices was determined using minor modifications of the disaggregated osteoclast resorption assay as described by Boyde et al. (1984). Sperm whale dentine (0.25×7×7 mm) was prepared using a Buehler low speed diamond saw (Buehler, Lake Bluff, Ill.) followed by sonication (15 min) in several changes of distilled water. Slices were sterilized using ultraviolet light.
# Neonatal Sprague-Dawley rats (2-3 days) were sacrificed by decapitation, the femurs and tibias were removed, scraped free of adherent tissue, and trimmed free of the epiphyses. The bones from one litter were combined and quickly minced using a scalpel blade in 2 ml of 199 medium and then vigorously mixed with a pipette in an 8-ml tube, allowed to settle for 10 s, and then 100 μl of the suspension was added to each well for a total of 16 wells in a 48-well microtiter plate containing sperm whale dentine (approximately four neonates are used per 16 wells). The cells were incubated at 37° C. for 30 min at which time the dentine was removed, washed in media, and placed in a fresh 48-well plate containing 250 μl of test medium.
# (§3) Osteoclasts were stained for TRAP and counted and then pit numbers were counted following toluidine blue (0.1% w/v) staining by light microscopy. The plan area of matrix resorbed was quantitated using a computer-assisted morphometric program on a Bioquant System IV analysis system (R & M Biometrics, Nashville, Tenn.).
# Quantitation of the effects of isolated neonatal rat osteoclasts on calcified matrices was determined using minor modifications of the disaggregated osteoclast resorption assay as described by Boyde et al (1984). Briefly rat osteoclasts isolated as described by Chambers et al. (1983) were dispersed on prewetted (AMEM plus 5% FBS) slices of sperm whale dentine. Cultures were performed in 48 well-microtiter plates in humidified air (10% CO2) at 37° C. in αMEM medium (one slice/well in 200 μl medium). Numbers of osteoclasts and resorption lacunae were quantitated as described above for the avian osteoclasts.
# [4] = test system: C433 cells; assay: Production of osteoclast-stimulating activity by C433 cells (conditioned medium bioassayed for TRAP in avian osteoclasts); format: cell-based, human; conditions: flurbiprofen 10^−5 M; indomethacin 10^−6 M; nordihydroguaiaretic acid 10^−6, 10^−5 or 10^−4 M
# Procedure: FIG. 3A, FIG. 3B, FIG. 3C and FIG. 3D. Chemical characterization of activity. FIG. 3A. C433-conditioned medium was treated with ultraviolet-light (UV) for 24 h or placed in a boiling water bath (100° C.) for 15 min and bioassayed. FIG. 3B. amino peptidase M (A), carboxypeptidase (C), or Pronase-CB (P) were incubated in the presence of C433-conditioned medium for 12 h at 37° C. FIG. 3C. […] The resultant conditioned medium was bioassayed for activity. FIG. 3D. […] Conditioned medium was bioassayed for induction of TRAP activity in avian osteoclasts.
# as §1, with “washed, and placed in serum-free DMEM plus 10^−8 M, 1,25-(OH)2D3 for 48 h before harvest of conditioned medium.” for “washed,”
# [5] = test system: isolated 23C6+ human giant cells; assay: Pit formation by isolated human giant cells on sperm whale dentine; format: cell-based
# Procedure: as §2, §3
# Human giant cell tumors (normally discarded after surgery) were minced and passed through 1#40SS wire mesh screen, allowed to settle for 5 min, and the cell suspension above the sediment collected. The cells were incubated with 23C6 monoclonal antibody that identifies the osteoclast vitronectin receptor (generously provided by Dr. Michael Horton) (1:10 dilution of hybridoma supernatant/10^6 cells) at 4° C. in serum-free medium for 30 min, after which immunomagnetic beads coated with anti-mouse IgG (Dynabead, Dynal, Inc., Great Neck, N.Y.) were added to the cell suspension. […]
# [6] = test system: isolated avian osteoclasts; assay: TRAP activity in isolated avian osteoclasts; format: cell-based, Gallus domesticus
# Procedure: Avian osteoclasts were isolated from medullary bone of laying White Leghorn hens Gallus domesticus (Pioneer Animal Supply, Kingswheel, Ohio) as described previously by Zambonin-Zallone and Teti (1981). In brief, bone marrow suspensions from the medullary bone of femora were filtered through Nytex cloth (110 μm, t'etko, Elmsford, N.Y.), centrifuged for 5 min at 1200 rpm, and the cell pellet resuspended in 0.2% NaCl for 3 min to lyse erythrocytes. After layering the cells on 100% fetal bovine serum for 1 h, sedimented cells were further filtered through Nytex filters (55 μm). Cells were harvested, resuspended in α-minimal Eagle's medium (GIBCO) containing 10 fetal bovine serum, with penicillin (100 units/ml), streptomycin (100 μg/ml), and Ara-C, to inhibit proliferation of nonosteoclastic cells. Cells were plated in 24- or 48-well plates (Costar, Cambridge, Mass.) at 1×10^4 cells/well and incubated at 37° C. in 10% CO2 humidified air for 48 h, after which they were washed to remove nonadherent cells. When matured osteoclasts were observed experiments were begun and terminated within 48 h.
# (§4) Osteoclast TRAP activity was measured using fluorescence spectroscopy as described by Chambers et al. (1987) with minor modifications. In brief, media from osteoclast cultures were harvested and stored at −70° C. until ready for assay.
# (§5) The cells were washed with phosphate-buffered saline and harvested in 0.5 ml of Triton X-100 (0.05%, w/v). Aliquots of media or lysate 30 μl) were incubated with 170 μl of 2 mM methylumbelliferyl phosphate, pH 5.0, in 0.48 M acetate buffer (0.48 M sodium acetate, 0.48 M acetic acid, pH 5.0) and 30 mM tartaric acid. Samples were incubated for 30 min at 37° C. and the reaction terminated with 100 μl of stop solution containing 50 mM glycine, 50 mM EDTA, pH 10.4. Fluorescence was measured at excitation 360 nm and emission 448 nm using a fluorimeter (Fluoroskan, Flow Instruments). Enzyme activity was expressed as micromoles of methylumbelliferyl phosphate hydrolyzed/min/μg of protein and the protein content measured by the technique of Lowry et al. (1951).
# [7] = test system: isolated 23C6(+) human giant cells of bone; assay: TRAP activity in isolated human giant cells; format: cell-based
# Procedure: as §4, §5
# Human giant cell tumors (normally discarded after surgery) were minced and passed through 1#40SS wire mesh screen, allowed to settle for 5 min, and the cell suspension above the sediment collected. […]
# [8] = Lymphotoxin 5 × 10^−9M + NDGA 10^−5M
compound,measurement,setting,value
"C=C1/C(=C\C=C2/CCC[C@]3(C)[C@@H]([C@H](C)CCCC(C)(C)O)CC[C@@H]23)C[C@@H](O)C[C@@H]1O [1,25D3, 1,25 dihydroxyvitamin D3]","45Ca release, factor alone (Table IV)","[1]; 1,25D3 10^−10M, IL-1 1 × 10^−10M",37.2%
same,"45Ca release, Factor alone (Table II)","[1]; IL-1 5 × 10^−10M, TNF 2 × 10^−10M, Lymphotoxin 5 × 10^−9M, PTH 4 ng/ml, 1,25D3 10^−10M",35.3% and 31.8% and 37.0%
same,5-HETE in C433-conditioned media,[2]; 6 h,3.36 pg/mL and 3.53 pg/mL
same,5-HETE in C433-conditioned media,[2]; 12 h,11.07 pg/mL and 11.68 pg/mL
"CC(Cc1ccc(O)c(O)c1)C(C)Cc1ccc(O)c(O)c1 (stereo not drawn) [NDGA, nordihydroguaiaretic acid]","inhibition of 1,25(OH)2 vitamin D3-induced bone resorption (in words)","[1]; 1,25(OH)2 vitamin D3 as factor",no significance was observed
same,"45Ca release, Factor + NDGA","[1]; 1,25D3 10^−10M + NDGA 10^−5M",31.7% and 29.2% and 32.5%
same,% Inhibition,"[1]; 1,25D3 10^−10M + NDGA 10^−5M",19.8% and 24.1%
same,"Ca^45 Release, LPS + NDGA",[1]; AAY4 LPS 25 μg/ml + NDGA 10^−5M,13.6%
same,"45Ca release, LPS + NDGA",[1]; AaY4 LPS 50 μg/ml + NDGA 10^−5M,22.2%
same,inhibition of LPS-induced bone resorption (in words),[1]; AaY4 LPS and/or WR14 LPS,significantly inhibited; also recorded: Significant inhibition
same,"45Ca release, Factor + NDGA",[1]; IL-1 5 × 10^−10M + NDGA 10^−5M,23.4% and 24.6%
same,% Inhibition,[1]; IL-1 5 × 10^−10M + NDGA 10^−5M,32.8%
same,inhibition of IL-1-induced bone resorption (in words),[1]; IL-1 as factor,significantly inhibits
same,"45Ca release, Factor + NDGA",[1]; [8],26.8% and 35.5%
same,% Inhibition,[1]; [8],31.7%
same,inhibition at 10 µM,"[1]; Mus musculus, 1,25D3 10^−10M + NDGA 10^−5M, read-out: % Inhibition",19.6%
same,inhibition at 10 µM,"[1]; Mus musculus, AAY4 LPS 25 μg/ml + NDGA 10^−5M, read-out: % Inhibition",120%
same,inhibition at 10 µM,"[1]; Mus musculus, AaY4 LPS 50 μg/ml + NDGA 10^−5M, read-out: % Inhibition",57.2%
same,inhibition at 10 µM,"[1]; Mus musculus, IL-1 5 × 10^−10M + NDGA 10^−5M, read-out: % Inhibition",30%
same,inhibition at 10 µM,"[1]; Mus musculus, Lymphotoxin 5 × 10^−9M + NDGA 10^−5M",48.8%
same,inhibition at 10 µM,"[1]; Mus musculus, TNF 2 × 10^−10M + NDGA 10^−5M, read-out: % Inhibition",43.2%
same,inhibition at 10 µM,"[1]; Mus musculus, WR14 LPS 50 ng/ml + NDGA 10^−5M, read-out: % Inhibition",57.6%
same,"45Ca release, Factor + NDGA",[1]; PTH 4 ng/ml + NDGA 10^−5M,30.6% and 31.2% and 28.6%
same,inhibition of PTH-induced bone resorption (in words),[1]; PTH as factor,One out of three experiments showed significant inhibition
same,"45Ca release, Factor + NDGA",[1]; TNF 2 × 10^−10M + NDGA 10^−5M,27.8% and 31.9%
same,% Inhibition,[1]; TNF 2 × 10^−10M + NDGA 10^−5M,33.5%
same,inhibition of TNF-induced bone resorption (in words),[1]; TNF as factor,significantly inhibits
same,% Inhibition,[1]; WR14 LPS 50 ng/ml + NDGA 10^−5M,40.8%
same,inhibition of lymphotoxin-induced bone resorption (in words),[1]; lymphotoxin as factor,significantly inhibits
same,NDGA inhibition of lipopolysaccharide-induced bone resorption,[1]; two different preparations of lipopolysaccharide,Greater than 50%
same,inhibition of PTH and PTHrP-induced bone resorption,"[3]; NDGA 10^−6M, MK886 1 μg/ml, ZM 230,487 10 ng/ml, 20 hours",inhibition of the bone resorption was seen
same,order of inhibitory effectiveness,"[3]; PTH and PTHrP-induced bone resorption, NDGA 10^−6M, MK886 1 μg/ml, ZM 230,487 10 ng/ml",ZM230487>MK886>NDGA
same,effect on production of C433 activity,[4],completely blocked
"CCCCC/C=C\C\C=C/C=C/C=C/[C@@H](SC[C@H](NC(=O)CC[C@H](N)C(=O)O)C(=O)NCC(=O)O)[C@@H](O)CCCC(=O)O [LTC4, leukotriene C4]",stimulation of pit formation,[5]; 10^−10 M,stimulated
5-hydroxyeicosatetraenoic acid [5-HETE],stimulation of bone resorption in neonatal mouse calvariae (in words),[1],stimulated bone resorption
same,stimulation of TRAP activity in avian osteoclasts (in words),[6],stimulated TRAP activity
same,concentration of optimal stimulation of TRAP activity,[6]; 10^−8 M stimulates suboptimally,10^−10 M
same,stimulation of TRAP activity,"[6]; 10^−10 M, 48 h",maximally stimulated
same,stimulation of TRAP activity in human giant cells (in words),[7],stimulated TRAP activity
same,stimulation of TRAP activity,"[7]; 10^−10 M, 48 h",maximally stimulated
same,pit formation by isolated rat osteoclasts (in words),[3],caused pit formation
same,pit formation by human giant cells (in words),[5],caused pit formation
